Literature values in patent publication US20150209327A1, “METHODS FOR THE TREATMENT OF OBESITY USING APREMILAST” (Celgene Corporation, priority 2014, published 2015).

Details: treatment of COPD; cited from earlier work

Compound: O=C(Nc1c(Cl)cncc1Cl)c1ccc(OC(F)F)c(OCC2CC2)c1 [roflumilast]
- weight change as a side effect: Weight decrease was observed
